The values that follow come from US20240383904A1, “HETEROCYCLIC COMPOUNDS” (Hoffmann-La Roche Inc., priority 2021, published 2024).

pIC50: −log10 of the molar value.

In the test the target is T1, MAGL (Homo sapiens, UniProt Q99685).
T1 sequence (Q99685 1-303): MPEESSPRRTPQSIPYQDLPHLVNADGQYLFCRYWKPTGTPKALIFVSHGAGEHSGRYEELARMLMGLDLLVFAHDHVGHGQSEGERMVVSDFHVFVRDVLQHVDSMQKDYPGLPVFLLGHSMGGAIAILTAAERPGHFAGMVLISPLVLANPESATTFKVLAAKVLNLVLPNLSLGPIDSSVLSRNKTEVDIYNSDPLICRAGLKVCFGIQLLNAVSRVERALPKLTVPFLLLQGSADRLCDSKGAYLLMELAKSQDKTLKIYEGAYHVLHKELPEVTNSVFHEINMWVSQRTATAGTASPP
Kind of test: 2-AG assay: MAGL inhibitory activity by hydrolysis of 2-arachidonoylglycerol to arachidonic acid, followed by mass spectrometry. Format: biochemical. The settings on record: 15 min preincubation, 30 min reaction at RT, 8 μM 2-arachidonoylglycerol.
Consider `O=C1NC2(CO1)CN(C(=O)N1CC3(C1)CN(S(=O)(=O)c1ccc(OC(F)(F)F)cc1)C3)C2` [Example 191, 2-[2-[4-(trifluoromethoxy)phenyl]sulfonyl-2,6-diazaspiro[3.3]heptane-6-carbonyl]-7-oxa-2,5-diazaspiro[3.4]octan-6-one], for which the pIC50 was 7.52.

`O=C1NC2(CO1)CN(C(=O)N1CC3(C1)CN(S(=O)(=O)c1cccc(OC(F)(F)F)c1)C3)C2` [Example 192, 2-[2-[3-(trifluoromethoxy)phenyl]sulfonyl-2,6-diazaspiro[3.3]heptane-6-carbonyl]-7-oxa-2,5-diazaspiro[3.4]octan-6-one] showed a pIC50 of 7.83. The value for `CC1(NS(=O)(=O)N2CC3(CN(C(=O)N4CC5(COC(=O)N5)C4)C3)C2)CC1` [Example 193, N-(1-methylcyclopropyl)-6-(6-oxo-7-oxa-2,5-diazaspiro[3.4]octane-2-carbonyl)-2,6-diazaspiro[3.3]heptane-2-sulfonamide] was 7.19; that for `O=C1CCC2(CN(C(=O)N3CC4(CCN(S(=O)(=O)c5ccc(C(F)(F)F)cc5F)CC4)C3)C2)N1` [Example 194, 2-[7-[2-fluoro-4-(trifluoromethyl)phenyl]sulfonyl-2,7-diazaspiro[3.5]nonane-2-carbonyl]-2,5-diazaspiro[3.4]octan-6-one] was 7.35; that for `O=C1NC2(CO1)CN(C(=O)N1CC3(C1)CN(S(=O)(=O)c1ccc(F)cc1C(F)(F)F)C3)C2` [Example 195, 2-[2-[4-fluoro-2-(trifluoromethyl)phenyl]sulfonyl-2,6-diazaspiro[3.3]heptane-6-carbonyl]-7-oxa-2,5-diazaspiro[3.4]octan-6-one] was 8.60. The value for `O=C1NC2(CO1)CN(C(=O)N1CC3(C1)CN(S(=O)(=O)c1cncc(C(F)(F)F)c1)C3)C2` [Example 196, 2-[2-[[5-(trifluoromethyl)-3-pyridyl]sulfonyl]-2,6-diazaspiro[3.3]heptane-6-carbonyl]-7-oxa-2,5-diazaspiro[3.4]octan-6-one] was 7.41; that for `O=C1NC2(CO1)CN(C(=O)N1CC3(C1)CN(S(=O)(=O)NCC1(C(F)(F)F)CC1)C3)C2` [Example 197, 6-(6-oxo-7-oxa-2,5-diazaspiro[3.4]octane-2-carbonyl)-N-[[1-(trifluoromethyl)cyclopro-pyl]methyl]-2,6-diazaspiro[3.3]heptane-2-sulfonamide] was 8.36. The value for `O=C1CCC2(CN(C(=O)N3CC4(C3)CN(S(=O)(=O)c3cccc(OC(F)(F)F)c3)C4)C2)N1` [Example 198, 2-[2-[3-(trifluoromethoxy)phenyl]sulfonyl-2,6-diazaspiro[3.3]heptane-6-carbonyl]-2,5-diazaspiro[3.4]octan-6-one] was 6.63. Consider `O=C1CCC2(CN(C(=O)N3CC4(C3)CN(S(=O)(=O)c3ccc(OC(F)(F)F)cc3)C4)C2)N1` [Example 199, 2-[2-[4-(trifluoromethoxy)phenyl]sulfonyl-2,6-diazaspiro[3.3]heptane-6-carbonyl]-2,5-diazaspiro[3.4]octan-6-one], for which the pIC50 was 6.58. The result for `O=C1CCC2(CN(C(=O)N3CC4(C3)CN(S(=O)(=O)c3ccccc3OC(F)(F)F)C4)C2)N1` [Example 200, 2-[2-[2-(trifluoromethoxy)phenyl]sulfonyl-2,6-diazaspiro[3.3]heptane-6-carbonyl]-2,5-diazaspiro[3.4]octan-6-one] reads 6.94. `CNC(=O)c1ccccc1CN1CC2(C1)CN(C(=O)N1CC3(COC(=O)N3)C1)C2` [Example 201, N-methyl-2-[[2-(6-oxo-7-oxa-2,5-diazaspiro[3.4]octane-2-carbonyl)-2,6-diazaspiro[3.3]heptan-6-yl]methyl]benzamide] gave a pIC50 of 6.78. Compound `O=C1NC2(CO1)CN(C(=O)N1CC3(C1)CN(c1ccc(C(F)(F)F)cn1)C3)C2` [Example 202, 2-[6-[5-(trifluoromethyl)-2-pyridyl]-2,6-diazaspiro[3.3]heptane-2-carbonyl]-7-oxa-2,5-diazaspiro[3.4]octan-6-one] gave a pIC50 of 7.21.
